Results reported in PubChem BioAssay (NCI).
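Interpolation was linear, between the two tested concentrations surrounding the appropriate level; five concentrations were tested over 48 hours in 96-well plates. At the GI50, growth is halved. Definition used: TGI = concentration required for complete inhibition of growth.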

Experiments:
Assay in all cases: DTP human tumour cell line panel, 48 h
OVCAR-5 ovarian = tested on: OVCAR-5 ovarian
M14 melanoma = tested on: M14 melanoma
UO-31 renal = tested on: UO-31 renal
EKVX NSCLC = tested on: EKVX NSCLC
NCI-H522 lung = tested on: NCI-H522 lung
MCF7 breast = tested on: MCF7 breast
SF-295 CNS = tested on: SF-295 CNS
SK-OV-3 ovarian = tested on: SK-OV-3 ovarian
HL-60(TB) leukemia = tested on: HL-60(TB) leukemia
CAKI-1 renal = tested on: CAKI-1 renal

SMILES	GI50 (OVCAR-5 ovarian) [µM]	TGI (OVCAR-5 ovarian) [µM]	GI50 (M14 melanoma) [µM]	TGI (M14 melanoma) [µM]	GI50 (UO-31 renal) [µM]	TGI (UO-31 renal) [µM]	GI50 (EKVX NSCLC) [µM]	TGI (EKVX NSCLC) [µM]	GI50 (NCI-H522 lung) [µM]	TGI (NCI-H522 lung) [µM]	GI50 (MCF7 breast) [µM]	TGI (MCF7 breast) [µM]	GI50 (SF-295 CNS) [µM]	TGI (SF-295 CNS) [µM]	GI50 (SK-OV-3 ovarian) [µM]	TGI (SK-OV-3 ovarian) [µM]	GI50 (HL-60(TB) leukemia) [µM]	TGI (HL-60(TB) leukemia) [µM]	GI50 (CAKI-1 renal) [µM]	TGI (CAKI-1 renal) [µM]
Clc1ccc(Nc2nnc(COc3ccccc3)c3ccccc23)cc1	3.88	15.4	0.918	5.03	0.727	5.2	0.679	7.32	0.354	4.04	1.18	6.07	1.65	6.7	2.38	9.96	3.56	11.9		
CN1CCN(CCCn2c3c(sc4ncccc43)c(=O)n3nnc(-c4ccccc4)c23)CC1	6.89	15.9	4.67	9.5	0.802	2.42	2.08	5.58	1.6	3.3	1.72	3.16	1.73	3.36	18.4	33.3	1.48	3.47	1.59	3.19
CCN1C(=O)N(CC)C2C1NN=c1s/c(=C\c3ccc(Br)cc3)c(=O)n12 (configuration not stated)	0.583	> 100	0.138	> 100	1.51	> 100	0.502	> 100	0.0558		0.0443	> 100	0.0738	> 100	1.84	> 100	0.107	1.43	0.065	> 100
NC(=O)C1CCCN1Cc1ccc2c(c1)OCO2 (configuration not stated)		> 100		> 100		> 100		> 100		> 100		> 100		> 100		> 100		> 100		> 100
COc1ccc(COc2ccc(Cc3cnc(N)nc3N)cc2OC)cc1	> 25	> 25	> 25	> 25	11.9	> 25	> 16.2	> 25	> 25	> 25	11.7	> 25	10.4	> 25	> 25	> 25	> 20.6	> 25	> 24.1	> 25
CC1(/C=C/c2ccc(-c3ccccc3)cc2)CCn2cnc3ncnc(c32)N1O (configuration not stated)	0.623	58.7	0.265	2.49	0.162	1.2	0.305	> 100	0.521	34	0.342	> 69.4	0.419	17.1	0.434	20.4	0.318	1.81	0.327	12.2
